From publication PMC4195671, “Luteolin Suppresses Cancer Cell Proliferation by Targeting Vaccinia-Related Kinase 1” (PLoS ONE, 2014)
Read-outs that look alike come from different tables or passages of the source.

How the values were obtained:
[1] = molecular target: T1, Vaccinia-related kinase 1 (VRK1) (Homo sapiens, UniProt Q99986); test: biochemical; assay type: binding
[2] = molecular target: T1, Vaccinia-related kinase 1 (VRK1); test: biochemical; assay type: binding; remark: listed apart in the source

T1 sequence (Q99986 whole entry): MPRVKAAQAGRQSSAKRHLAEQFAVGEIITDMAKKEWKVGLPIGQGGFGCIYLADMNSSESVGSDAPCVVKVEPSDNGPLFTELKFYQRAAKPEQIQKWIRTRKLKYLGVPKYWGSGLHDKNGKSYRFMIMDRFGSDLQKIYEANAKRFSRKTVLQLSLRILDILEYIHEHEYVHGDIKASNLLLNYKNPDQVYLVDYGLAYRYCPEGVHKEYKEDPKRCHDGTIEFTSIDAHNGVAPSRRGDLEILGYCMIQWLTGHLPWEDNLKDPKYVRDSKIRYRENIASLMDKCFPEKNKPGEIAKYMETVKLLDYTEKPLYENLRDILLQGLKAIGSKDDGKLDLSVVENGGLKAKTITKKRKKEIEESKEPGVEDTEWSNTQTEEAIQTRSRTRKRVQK

## COc1ccc(-c2cc(=O)c3c(O)c(OC)c(O)cc3o2)cc1OC [eupatilin]
[1]
  Kd: 184 µM

## O=c1cc(-c2ccc(O)c(O)c2)oc2cc(O)cc(O)c12 [luteolin, 3′,4′,5,7-tetrahydroxyflavone]
[2]
  Kd: 5.8 µM

## COc1c(O)cc(O)c2c(=O)cc(-c3ccccc3)oc12 [wogonin]
[1]
  Kd: 120 µM
